Values quoted from earlier work as cited in US6399089B1, “Compositions and methods for regulating metabolism and balancing body weight” (priority 2000, dated 2002).
Like-named read-outs stand apart in the source and are kept apart here.

Legend:
[1] = rats
[2] = 200 mcg, after 26 weeks, obese patients, very low calorie diet

Molecule: CC(=O)Oc1ccccc1C(=O)O [aspirin]
- thermogenic response of ephedrine during a meal (lean women): not lean women
- thermogenic response of ephedrine during a meal (obese women): potentiated

Molecule: CN[C@@H](C)[C@H](O)c1ccccc1 [ephedrine]
- increase in energy expenditure [1]: 9%
- reduction of body fat [1]: 50%
- reduction of body weight [1]: 18%

Molecule: chromium picolinate
- lean body mass [2]: increased lean body mass
